Data on 1 molecule can be found in paper PMC3402633 (2012).

This test addresses tubulin (αβ-tubulin heterodimer). The test is described as follows: competition with [3H]colchicine binding. Further details: species or system Bos taurus.

Molecule `COC(=O)C1=CC[C@@]23CC[C@@H]([C@@](C)(/C=C/C=C(\C)C(=O)O)OC2=O)[C@@]3(OC(C)=O)CC1` [PAB, pseudolaric acid B] displayed a Ki of 12 to 15 µM.
